Results reported in US7585851B2, “3′-prodrugs of 2′-deoxy-β-L-nucleosides” (priority 2000, dated 2009).
Where “and” joins values, the source holds several entries; their conditions need not be identical. Equal entries are not always repeated. Entries after “also recorded” stand apart in the source; their conditions may differ. Where two headings read alike, the source gives them in different places.

How the values were obtained:
DHBV = DHBV DNA synthesis in primary duck hepatocyte cultures; format: cell-based, duck hepatitis B virus; details: primary duck hepatocytes (PDH)
HSV-1 = test: Antiviral panel: HSV-1 (HFF); format: cell-based
HSV-2 = test: Antiviral panel: HSV-2 (HFF); format: cell-based
Influenza A/H1N1 = test: Antiviral panel: Influenza A/H1N1 (MDCK); format: cell-based
Influenza B = test: Antiviral panel: Influenza B (MDCK); format: cell-based
Measles = test: Antiviral panel: Measles (CV-1); format: cell-based
Parainfluenza type 3 = test: Antiviral panel: Parainfluenza type 3 (MA-104); format: cell-based
Rhinovirus type 5 = test: Antiviral panel: Rhinovirus type 5 (KB); format: cell-based
RSV type A = test: Antiviral panel: RSV type A (MA-104); format: cell-based
WHV [1] = test: Woodchuck model of chronic hepatitis B infection, 12 weeks oral; details: 1 mg/kg/day orally, woodchucks
Protocol: WHV DNA and body weight were measured on Days 0, 1, 3, 7, 14, 21, 28, 42, 56, and 84 as well as on post-treatment Days 7, 14, 21, 28, 42, 56, 70, and 84. WHV DNA levels were determined by quantitative PCR. Appropriate samples for hematology, serum chemistries, WHV serology, and liver biopsy were collected pretreatment and on Day 84.

[2] = test system: cytosolic extracts of HepG2 cells; test: Steady state phosphorylation kinetics in HepG2 cytosolic extracts; format: biochemical, human
[3] = format: in vivo, rhesus monkey
Protocol: The pharmacokinetics of L-dC following oral administration in the rhesus monkey was determined. […] Blood samples for pharmacokinetic analysis were collected pre-dose and at 0.25, 0.5, 1, 2, 3, 6, 8 and 24 hours after dosing. Urine samples for pharmacokinetic analyses were collected via pan catch pre-dose and over the following intervals post-dose: 0-2, 2-4, 4-8 and 8-12 hours, and then at 12-hour intervals thereafter through 336 hours post-dose. The drug was detected and concentration determined using a reverse-phase HPLC technique.

[4] = format: in vivo; details: woodchuck; for AUCt→24: t = […]; for Cmax: analyte = label, read-out: Cmax in plasma
[5] = Single dose bioavailability of dival-L-dC (IV and oral) in cynomologus monkey; format: in vivo, cynomologus monkey (macaca fascicularis)
Source text: The drug was quantitated in plasma and urine with a liquid chromatography-mass spectrometry (LC-MS) technique.

[6] = Oral bioavailability of L-dC via dival-L-dC in cynomologus monkey (HPLC study); details: cynomolgus monkey, in vivo, po
Source text: The drug was quantitated in plasma and in urine using HPLC analysis.

HepG2 cells = test: Mitochondrial toxicity assay in HepG2 cells; format: cell-based, human
bone marrow cells = test: Mouse micronucleus assay; format: in vivo; details: single oral dose up to 2000 mg/kg, male and female mice
Protocol: L-dC was tested for its potential to induce micronucleated polychromatic erythrocytes (MPCE) in the bone marrow cells of male and female mice. L-dC at concentrations of 500, 1000, and 2000 mg/kg and positive and negative controls were tested. Study […] as a single dose. Two harvests approximately 24 and 48 hours after L-dC or negative control administration were performed, and a single harvest approximately 24 hours after positive control administration was performed. Five male and five female mice per dose group per harvest time were used. The percentage of polychromatic erythrocytes (PCE) and MPCE frequency were determined for each timepoint.

[7] = test system: HFF, human foreskin fibroblast
[8] = test system: MDCK, canine kidney epithelial cells
[9] = test system: CV-1, African green monkey kidney fibroblast cells
[10] = test system: MA-104, rhesus monkey kidney epithelial cells
[11] = test system: KB, human nasopharyngeal carcinoma
WHV [12] = details: 0.01-10 mg/kg/day orally, woodchucks
[13] = human
[14] = monkey, in vivo, 2000 mg/kg
[15] = rat, in vivo
HBV = test: Anti-HBV activity in HBV-expressing 2.2.15 cells (HBV DNA reduction); details: 2.2.15 cells
[16] = Bioavailability of the prodrugs of L-dC in monkeys, with and without L-dT; details: oral
[17] = L-dC 10 mg/kg oral, rhesus monkey
[18] = dival-L-dC 10 mg/kg oral, monkey
[19] = HepG2, L-dC 10, FIAU 10, ZDV 50, ddC 1 μM

**Q.** With `Nc1ccn([C@@H]2C[C@@H](O)[C@H](CO)O2)c(=O)n1` [L-dC, 2′-deoxy-β-L-cytidine] as the molecule, how does the EC50 (DHBV) read?
**A.** Its EC50 is 0.87 µM.

**Q.** What about the EC50 (HSV-1) of the same molecule?
**A.** The EC50 was over 100 µg/mL.

**Q.** And the EC50 (HSV-2)?
**A.** Its EC50 is over 100 µg/mL.

**Q.** And the EC50 (Influenza A/H1N1)?
**A.** Its EC50 is over 100 µM.

**Q.** What about the EC50 (Influenza B) of the same molecule?
**A.** Its EC50 is over 100 µM.

**Q.** And the EC50 (Measles)?
**A.** The EC50 was over 100 µM.

**Q.** What about the EC50 (Parainfluenza type 3) of the same molecule?
**A.** The EC50 was over 100 µM.

**Q.** What about the EC50 (Rhinovirus type 5) of the same molecule?
**A.** The EC50 was over 100 µM.

**Q.** And the EC50 (RSV type A)?
**A.** The EC50 was over 100 µM.

**Q.** And the “end-of-treatment liver biopsy histomorphology” value (WHV [1])?
**A.** Its value is “no histomorphological evidence of fatty changes; also recorded: no evidence of fatty change”.

**Q.** And the Vmax of phosphorylation [2]?
**A.** The Vmax of phosphorylation was 1.12 mmol/min/mg protein.

**Q.** What about the Tmax [3, 17] of the same molecule?
**A.** Its Tmax is 0.83 h.

**Q.** What about the renal clearance [3, 17] of the same molecule?
**A.** The renal clearance was 4.55 mL/min/kg.

**Q.** And the t1/2 [3, 17]?
**A.** The t1/2 was 3.34 h.

**Q.** What about the oral bioavailability ([3]; L-dC oral, rhesus monkey) of the same molecule?
**A.** The oral bioavailability was about 16%.

**Q.** And the “administered oral dose recovered in urine” value ([3]; after 48 hours)?
**A.** The value was 15%.

**Q.** What about the “share of drug excreted / recovered dose in urine, by analyte” value (“share of drug excreted / recovered dose” below) ([3]; oral L-dC, analyte = label) of the same molecule?
**A.** The value was about 77%.

**Q.** And the “administered oral dose recovered in urine” value ([3]; within 8 hours)?
**A.** The value was “Approximately 8.5%”.

**Q.** And the CL ([4]; L-dC 10 mg/kg IV)?
**A.** Its CL is 6.5 mL/min/kg.

**Q.** What about the Tmax ([4]; L-dC 10 mg/kg IV) of the same molecule?
**A.** Its Tmax is 0 h.

**Q.** What about the Vd ([4]; L-dC 10 mg/kg IV) of the same molecule?
**A.** The Vd was 1.17 L/kg.

**Q.** What about the t1/2 ([4]; L-dC 10 mg/kg IV) of the same molecule?
**A.** The t1/2 was 2.85 h.

**Q.** What about the AUCt→24 ([4]; L-dC 10 mg/kg IV) of the same molecule?
**A.** The AUCt→24 was 174 µM·h.

**Q.** What about the Cmax ([4]; L-dC 10 mg/kg IV) of the same molecule?
**A.** Its Cmax is 112 µM.

**Q.** What about the “oral bioavailability F” value ([4]; L-dC 10 mg/kg PO vs IV) of the same molecule?
**A.** Its value is 9.57%.

**Q.** What about the Tmax ([4]; L-dC 10 mg/kg PO) of the same molecule?
**A.** The Tmax was 3 h.

**Q.** What about the t1/2 ([4]; L-dC 10 mg/kg PO) of the same molecule?
**A.** The t1/2 was 5.22 h.

**Q.** And the AUCt→24 ([4]; L-dC 10 mg/kg PO)?
**A.** Its AUCt→24 is 11.3 µM·h.

**Q.** What about the Cmax ([4]; L-dC 10 mg/kg PO) of the same molecule?
**A.** The Cmax was 1.37 µM.

**Q.** And the “share of drug excreted / recovered dose” value ([5]; IV dival-L-dC, analyte = label)?
**A.** The value was about 93%.

**Q.** What about the Cmax ([5]; Intravenous (10 mg/kg Dival-L-dC), analyte = label, read-out: Cmax of each metabolite) of the same molecule?
**A.** The Cmax was 24.6 µM.

**Q.** What about the Cmax ([5]; Oral (10 mg/kg dival-L-dC), analyte = label, read-out: Cmax of each metabolite) of the same molecule?
**A.** Its Cmax is 8.26 µM.

**Q.** And the “AUC0.25→8 of L-dC” value ([5]; dival-L-dC 10 mg/kg IV, monkey)?
**A.** The value was 19.8 µM·h.

**Q.** And the “CL of L-dC” value ([5]; dival-L-dC 10 mg/kg IV, monkey)?
**A.** Its value is 16.8 mL/min/kg.

**Q.** And the “Vd of L-dC” value ([5]; dival-L-dC 10 mg/kg IV, monkey)?
**A.** Its value is 2.46 L/kg.

**Q.** What about the “t1/2 of L-dC” value ([5]; dival-L-dC 10 mg/kg IV, monkey) of the same molecule?
**A.** Its value is 1.73 h.

**Q.** What about the Cmax ([5]; dival-L-dC 10 mg/kg IV, monkey, read-out: Cmax of L-dC) of the same molecule?
**A.** The Cmax was 24.6 µM.

**Q.** What about the “AUC0.25→8 of L-dC” value [5, 18] of the same molecule?
**A.** Its value is 14.0 µM·h.

**Q.** And the “Tmax of L-dC” value [5, 18]?
**A.** The value was 0.67 h.

**Q.** And the “t1/2 of L-dC” value [5, 18]?
**A.** Its value is 2.28 h.

**Q.** What about the “share of plasma drug levels at Cmax” value ([5]; oral dival-L-dC) of the same molecule?
**A.** The value was over 99%.

**Q.** And the “share of drug excreted / recovered dose” value ([5]; oral dival-L-dC, analyte = label)?
**A.** The value was about 95%.

**Q.** What about the “share of drug excreted / recovered dose” value [6] of the same molecule?
**A.** The value was about 89%.

**Q.** What about the “effect on mitochondrial DNA content” value (HepG2 cells; HepG2, 14 days, concentrations up to 0.10 μM) of the same molecule?
**A.** Its value is “no effect”.

**Q.** And the CC50 (HepG2 cells; HepG2, after 14 days of treatment)?
**A.** The CC50 was over 2000 µM.

**Q.** And the “L-Lactate, % of Control” value (HepG2 cells; [19])?
**A.** The value was 101 ± 2 % of Control.

**Q.** And the “Lipid Droplet Formation” value (HepG2 cells; [19])?
**A.** Its value is “negative”.

**Q.** And the “mtDNA, % of Control” value (HepG2 cells; [19])?
**A.** Its value is 107 ± 8 % of Control.

**Q.** What about the “Mitochondrial Morphology” value (HepG2 cells; HepG2, L-dC 10, FIAU 10, ZDV 50, ddC 1 μM, electron microscopy) of the same molecule?
**A.** The value was “No discernible changes; also recorded: normal”.

**Q.** What about the micronucleus assay result (bone marrow cells) of the same molecule?
**A.** The micronucleus assay result was “negative; also recorded: not clastogenic”.

**Q.** What about the CC50 [7] of the same molecule?
**A.** The CC50 was over 100 µg/mL.

**Q.** What about the CC50 [8] of the same molecule?
**A.** Its CC50 is over 100 µM.

**Q.** What about the CC50 [9] of the same molecule?
**A.** Its CC50 is over 100 µM.

**Q.** What about the CC50 [10] of the same molecule?
**A.** The CC50 was over 100 µM.

**Q.** And the CC50 [11]?
**A.** Its CC50 is over 100 µM.

**Q.** What about the “toxicity during four-week treatment and eight-week follow-up” value (WHV [12]) of the same molecule?
**A.** The value was “no drug-related toxicity; also recorded: no toxicity was observed”.

**Q.** And the plasma protein binding [13]?
**A.** Its plasma protein binding is 19.7%±5.9%.

**Q.** And the “estimated terminal phase mean half-lives” value [14]?
**A.** Its value is 4 to 5 h.

**Q.** And the Tlast [15]?
**A.** Its Tlast is 24 h.

**Q.** What about the “estimated terminal phase half-lives” value ([15]; 1000 mg/kg) of the same molecule?
**A.** Its value is 9 to 17 h.

**Q.** And the “estimated terminal phase half-lives” value ([15]; 2000 mg/kg)?
**A.** Its value is 6 to 8 h.

**Q.** What about the AUClast ([15]; po, 2000 mg/kg/day) of the same molecule?
**A.** Its AUClast is 461 µg·h/mL.

**Q.** What about the EC90 (HBV; 10-fold reduction of HBV virion DNA levels (Table 25)) of the same molecule?
**A.** The EC90 was 1.1 ± 0.1 µM.

**Q.** What about the EC50 (HBV; read-out: EC50 for reduction in extracellular HBV DNA) of the same molecule?
**A.** Its EC50 is 0.24 µM.

**Q.** And the EC50 (HBV; read-out: EC50 for reduction of intracellular HBV DNA replicative intermediates (RI))?
**A.** Its EC50 is 0.51 µM and 0.5 µM.

**Q.** And the EC90 (HBV; read-out: EC90 against HBV replication (extracellular HBV DNA))?
**A.** Its EC90 is 1.07 µM and 1.06 µM.

**Q.** What about the “% BA w/ L-dT” value ([16]; coadministered with 10 mg/kg L-dT) of the same molecule?
**A.** The value was 11.9 ± 1.7%.

**Q.** And the “% BA (bioavailability of L-dC)” value ([16]; estimated relative to AUC of L-dC (oral dose))?
**A.** The value was 16.4 ± 5.0%.
